Experimental data taken from ChEMBL document CHEMBL5620355, “Discovery of intracellular self-assembly protein degraders driven by tumor-specific activatable bioorthogonal reaction” (Eur J Med Chem, 2023).
Activity calls are given as the source filed them. No cut-off for these calls is given here.

Key:
U-87 MG [1] = assay: Induction of apoptosis in human U87 cells assessed as late apoptotic cells at 1 uM incubated for 48 hrs in presence of 4-(4-(3-(4-chloro-3-(trifluoromethyl)phenyl)ureido)phenoxy)-N-(prop-2-yn-1-yl)picolinamide by Annexin V-FLTC/PI staining based flow cytometry (reference value: 3.71 %); assay type: functional, U-87MG ATCC
[2] = target: Vascular endothelial growth factor receptor 2 (Homo sapiens) (UniProt P35968); assay: Induction of VEGFR2 degradation in human U87 cells at 10 uM incubated for 48 hrs in presence of 4-(4-(3-(4-chloro-3-(trifluoromethyl)phenyl)ureido)phenoxy)-N-(prop-2-yn-1-yl)picolinamide by Western blot analysis; assay type: cell-based
Vascular endothelial growth factor receptor 2 (Homo sapiens), sequence (P35968 whole entry): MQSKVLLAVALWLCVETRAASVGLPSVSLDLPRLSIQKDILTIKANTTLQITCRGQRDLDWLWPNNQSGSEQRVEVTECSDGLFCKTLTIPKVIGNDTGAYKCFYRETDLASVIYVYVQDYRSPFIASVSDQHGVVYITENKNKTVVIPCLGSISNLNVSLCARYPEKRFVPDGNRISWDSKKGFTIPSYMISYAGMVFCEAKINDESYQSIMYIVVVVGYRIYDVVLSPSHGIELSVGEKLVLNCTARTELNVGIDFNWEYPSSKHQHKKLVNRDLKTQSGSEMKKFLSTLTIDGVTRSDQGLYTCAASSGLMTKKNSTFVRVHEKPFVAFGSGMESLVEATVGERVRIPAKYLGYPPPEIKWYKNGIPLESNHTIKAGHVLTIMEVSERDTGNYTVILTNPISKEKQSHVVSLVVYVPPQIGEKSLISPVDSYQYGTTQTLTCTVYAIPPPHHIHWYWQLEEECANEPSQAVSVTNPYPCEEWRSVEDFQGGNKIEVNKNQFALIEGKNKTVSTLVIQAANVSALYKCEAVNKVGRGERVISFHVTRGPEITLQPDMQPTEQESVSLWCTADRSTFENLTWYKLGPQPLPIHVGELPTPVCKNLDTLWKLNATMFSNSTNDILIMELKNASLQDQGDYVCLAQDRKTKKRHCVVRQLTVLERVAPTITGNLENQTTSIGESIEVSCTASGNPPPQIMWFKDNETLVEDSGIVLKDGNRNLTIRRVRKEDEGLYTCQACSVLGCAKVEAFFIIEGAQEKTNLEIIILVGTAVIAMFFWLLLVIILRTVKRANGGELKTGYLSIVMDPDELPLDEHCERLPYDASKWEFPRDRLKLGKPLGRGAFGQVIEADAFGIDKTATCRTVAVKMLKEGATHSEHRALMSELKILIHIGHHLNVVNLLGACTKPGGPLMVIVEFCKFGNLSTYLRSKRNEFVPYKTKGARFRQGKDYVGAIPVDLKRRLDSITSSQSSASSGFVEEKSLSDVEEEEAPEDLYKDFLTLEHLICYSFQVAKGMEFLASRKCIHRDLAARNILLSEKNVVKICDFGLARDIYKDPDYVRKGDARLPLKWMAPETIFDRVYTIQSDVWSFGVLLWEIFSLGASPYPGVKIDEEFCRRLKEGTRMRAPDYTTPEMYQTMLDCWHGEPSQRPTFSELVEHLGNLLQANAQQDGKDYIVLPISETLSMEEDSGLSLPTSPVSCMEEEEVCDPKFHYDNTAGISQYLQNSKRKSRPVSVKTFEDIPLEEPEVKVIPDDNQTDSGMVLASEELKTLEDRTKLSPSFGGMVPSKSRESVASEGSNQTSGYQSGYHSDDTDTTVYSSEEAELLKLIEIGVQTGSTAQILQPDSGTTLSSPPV

[3] = target: T1, Ephrin type-B receptor 4 (Homo sapiens) (UniProt P54760); assay: Induction of EphB4 degradation in human U87 cells at 10 uM incubated for 48 hrs by Western blot analysis; assay type: cell-based
T1 sequence (whole entry): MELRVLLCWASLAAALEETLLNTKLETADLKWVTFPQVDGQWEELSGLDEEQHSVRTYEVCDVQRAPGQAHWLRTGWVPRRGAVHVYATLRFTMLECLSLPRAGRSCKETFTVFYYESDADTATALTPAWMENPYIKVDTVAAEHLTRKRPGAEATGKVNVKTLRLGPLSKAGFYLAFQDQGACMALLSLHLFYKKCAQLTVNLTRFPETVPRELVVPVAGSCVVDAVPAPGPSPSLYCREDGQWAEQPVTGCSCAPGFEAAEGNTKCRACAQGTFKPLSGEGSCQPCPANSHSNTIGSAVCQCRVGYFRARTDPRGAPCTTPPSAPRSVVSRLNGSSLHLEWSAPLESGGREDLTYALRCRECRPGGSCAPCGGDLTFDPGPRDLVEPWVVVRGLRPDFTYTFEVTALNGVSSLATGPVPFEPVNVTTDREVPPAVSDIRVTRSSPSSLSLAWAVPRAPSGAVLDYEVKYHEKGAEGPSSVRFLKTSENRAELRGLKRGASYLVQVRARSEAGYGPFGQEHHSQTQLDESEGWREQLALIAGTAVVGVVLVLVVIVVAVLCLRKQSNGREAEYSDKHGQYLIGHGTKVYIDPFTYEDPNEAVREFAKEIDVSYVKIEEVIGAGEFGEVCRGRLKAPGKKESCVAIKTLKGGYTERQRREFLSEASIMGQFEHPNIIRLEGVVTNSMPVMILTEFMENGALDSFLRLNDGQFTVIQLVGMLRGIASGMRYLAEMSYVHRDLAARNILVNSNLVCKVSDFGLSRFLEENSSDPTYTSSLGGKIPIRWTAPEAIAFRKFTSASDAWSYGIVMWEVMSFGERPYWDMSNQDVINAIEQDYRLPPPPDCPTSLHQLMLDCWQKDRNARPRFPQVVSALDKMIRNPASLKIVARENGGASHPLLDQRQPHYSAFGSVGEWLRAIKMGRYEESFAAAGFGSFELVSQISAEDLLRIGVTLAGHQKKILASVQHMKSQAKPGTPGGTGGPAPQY

U-87 MG [4] = assay: (§1) Induction of apoptosis in human U87 cells assessed as viable cells at 5 uM incubated for 48 hrs in presence of (2S,4R)-1-((S)-2-(5-azidopentanamido)-3,3-dimethylbutanoyl)-4-hydroxy-N-(4-(4-methylthiazol-5-yl)benzyl)pyrrolidine-2-carboxamide by Annexin V-FLTC/PI staining based flow cytometry (reference value: 86.74 %); assay type: functional, U-87MG ATCC; settings: read-out: Activity
[5] = target: Vascular endothelial growth factor receptor 2 (Homo sapiens) (UniProt P35968); assay: Induction of VEGFR2 degradation in human U87 cells upto 10 uM incubated for 48 hrs by Western blot analysis; assay type: cell-based
U-87 MG [6] = assay: as §1, with “as necrotic” for “as viable”, “at 20” for “at 5”, “value: 0.60” for “value: 86.74”; assay type: functional, U-87MG ATCC
U-87 MG [7] = assay: Induction of cell cycle arrest at S phase in human U87 cells incubated for 48 hrs in presence of (2S,4R)-1-((S)-2-(5-azidopentanamido)-3,3-dimethylbutanoyl)-4-hydroxy-N-(4-(4-methylthiazol-5-yl)benzyl)pyrrolidine-2-carboxamide by PI staining based flow cytometry; assay type: functional; settings: U-87MG ATCC, dose 0.1-1 µM
[8] = target: Serine/threonine-protein kinase B-raf (Homo sapiens) (UniProt P15056); assay: Induction of BRAF degradation in human U87 cells at 10 uM incubated for 48 hrs in presence of 4-azido-N-(2-(2,6-dioxopiperidin-3-yl)-1,3-dioxoisoindolin-4-yl)butanamide by Western blot analysis; assay type: cell-based
Serine/threonine-protein kinase B-raf (Homo sapiens), sequence (P15056 whole entry): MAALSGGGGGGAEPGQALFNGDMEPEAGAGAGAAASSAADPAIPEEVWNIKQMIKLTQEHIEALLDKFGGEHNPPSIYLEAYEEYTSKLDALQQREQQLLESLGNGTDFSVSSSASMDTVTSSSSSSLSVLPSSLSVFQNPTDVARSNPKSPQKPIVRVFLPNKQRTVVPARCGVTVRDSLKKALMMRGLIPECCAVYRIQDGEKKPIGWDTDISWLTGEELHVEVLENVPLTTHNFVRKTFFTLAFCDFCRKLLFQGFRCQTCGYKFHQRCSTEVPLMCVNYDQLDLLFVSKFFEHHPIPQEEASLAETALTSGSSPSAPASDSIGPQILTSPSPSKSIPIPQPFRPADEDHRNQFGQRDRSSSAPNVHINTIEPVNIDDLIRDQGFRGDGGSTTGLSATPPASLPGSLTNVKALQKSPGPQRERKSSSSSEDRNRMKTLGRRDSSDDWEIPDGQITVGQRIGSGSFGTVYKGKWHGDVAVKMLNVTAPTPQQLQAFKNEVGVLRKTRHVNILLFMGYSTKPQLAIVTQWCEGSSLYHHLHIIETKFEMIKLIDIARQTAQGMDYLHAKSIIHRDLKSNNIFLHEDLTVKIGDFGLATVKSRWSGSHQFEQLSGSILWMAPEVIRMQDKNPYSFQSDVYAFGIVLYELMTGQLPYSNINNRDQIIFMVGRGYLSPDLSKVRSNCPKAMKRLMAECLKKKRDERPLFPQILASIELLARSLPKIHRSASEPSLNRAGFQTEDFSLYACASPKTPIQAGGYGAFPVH

U-87 MG [9] = assay: as §1, with “as early apoptotic” for “as viable”, “at 10” for “at 5”, “value: 8.95” for “value: 86.74”; assay type: functional, U-87MG ATCC
U-87 MG [10] = assay: as §1, with “early apoptotic” for “viable”, “8.95” for “86.74”; assay type: functional, U-87MG ATCC
HEK293 = assay: Cytotoxicity against HEK293 cells at low concentration incubated for 48 hrs in presence of (2S,4R)-1-((S)-2-(5-azidopentanamido)-3,3-dimethylbutanoyl)-4-hydroxy-N-(4-(4-methylthiazol-5-yl)benzyl)pyrrolidine-2-carboxamide by MTT assay; assay type: toxicity, cell-based; settings: human, hek293, 48 h

Row | Structure (SMILES) | Activity (U-87 MG [1]) [%] | Activity [2] | Activity [3] | viability at 5 µM (U-87 MG [4]) [%] | Activity [5] | Activity (U-87 MG [6]) [%] | Activity (U-87 MG [7]) | Activity [8] | Activity (U-87 MG [9]) [%] | Activity (U-87 MG [10]) [%] | Activity (HEK293)
1 | [N-]=[N+]=NCCCC(=O)Nc1cccc2c1C(=O)N(C1CCC(=O)NC1=O)C2=O (stereo unspecified) | 5.43 | Active | Active |  |  |  |  |  |  |  | 
2 | C#CCNC(=O)c1cc(Oc2ccc(NC(=O)Nc3ccc(Cl)c(C(F)(F)F)c3)cc2)ccn1 |  |  |  | 1.48 | inactive | 6.36 | Dose-Dependent Effect | Active | 0.08 | 0.05 | Non-Toxic
